# Experiments:
# Experiment in all cases: KINOMEscan kinase binding assay
# [1] = target: T1, 384 kinases from the human genome (Homo sapiens, UniProt Q8NFD2); conditions: kinase ANKK1 (Entrez ANKK1)
# T1 construct: purchased Eurofin/DiscoverX
# Procedure, shortened: (§1)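 A panel of 384 human kinases was profiled by KINOMEscan binding in the presence of 10 µM compound. Kinase–ligand binding was given as percent of DMSO control, averaged from duplicates in a single run, with an S(10) selectivity score.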
# [2] = target: T2, 384 kinases from the human genome (Homo sapiens, UniProt Q9C098); conditions: kinase DCAMKL3 (Entrez DCLK3)
# T2 construct: purchased Eurofin/DiscoverX
# Procedure, shortened: as §1
# [3] = target: T3, 384 kinases from the human genome (Homo sapiens, UniProt Q8IY84); conditions: kinase NIM1 (Entrez MGC42105)
# T3 construct: purchased Eurofin/DiscoverX
# Procedure, shortened: as §1
# [4] = target: T4, 384 kinases from the human genome (Homo sapiens, UniProt Q8N4C8); conditions: kinase MINK (Entrez MINK1)
# T4 construct: purchased Eurofin/DiscoverX
# Procedure, shortened: as §1
# [5] = target: T5, 384 kinases from the human genome (Homo sapiens, UniProt P37173); conditions: kinase TGFBR2 (Entrez TGFBR2)
# T5 construct: purchased Eurofin/DiscoverX
# Procedure, shortened: as §1
# [6] = target: T6, 384 kinases from the human genome (Homo sapiens, UniProt Q16584); conditions: kinase MLK3 (Entrez MAP3K11)
# T6 construct: purchased Eurofin/DiscoverX
# Procedure, shortened: as §1
# [7] = target: T7, 384 kinases from the human genome (Homo sapiens, UniProt Q00537); conditions: kinase PCTK2 (Entrez CDK17)
# T7 construct: purchased Eurofin/DiscoverX
# Procedure, shortened: as §1
# [8] = target: T8, 384 kinases from the human genome (Homo sapiens, UniProt Q16288); conditions: kinase TRKC (Entrez NTRK3)
# T8 construct: purchased Eurofin/DiscoverX
# Procedure, shortened: as §1
# [9] = target: T9, 384 kinases from the human genome (Homo sapiens, UniProt O95835); conditions: kinase LATS1 (Entrez LATS1)
# T9 construct: purchased Eurofin/DiscoverX
# Procedure, shortened: as §1
# [10] = target: T10, 384 kinases from the human genome (Homo sapiens, UniProt P52564); conditions: kinase MEK6 (Entrez MAP2K6)
# T10 construct: purchased Eurofin/DiscoverX
# Procedure, shortened: as §1
# [11] = target: T11, 384 kinases from the human genome (Homo sapiens, UniProt Q8TDC3); conditions: kinase BRSK1 (Entrez BRSK1)
# T11 construct: purchased Eurofin/DiscoverX
# Procedure, shortened: as §1
# [12] = target: T12, 384 kinases from the human genome (Homo sapiens, UniProt Q13705); conditions: kinase ACVR2B (Entrez ACVR2B)
# T12 construct: purchased Eurofin/DiscoverX
# Procedure, shortened: as §1
# [13] = target: T13, 384 kinases from the human genome (Homo sapiens, UniProt O15075); conditions: kinase DCAMKL1 (Entrez DCLK1)
# T13 construct: purchased Eurofin/DiscoverX
# Procedure, shortened: as §1
# [14] = target: T14, 384 kinases from the human genome (Homo sapiens, UniProt P21709); conditions: kinase EPHA1 (Entrez EPHA1)
# T14 construct: purchased Eurofin/DiscoverX
# Procedure, shortened: as §1
# [15] = target: T15, 384 kinases from the human genome (Homo sapiens, UniProt P48729); conditions: kinase CSNK1A1 (Entrez CSNK1A1)
# T15 construct: purchased Eurofin/DiscoverX
# Procedure, shortened: as §1
# [16] = target: T16, 384 kinases from the human genome (Homo sapiens, UniProt Q99755); conditions: kinase PIP5K1A (Entrez PIP5K1A)
# T16 construct: purchased Eurofin/DiscoverX
# Procedure, shortened: as §1
# [17] = target: T17, 384 kinases from the human genome (Homo sapiens, UniProt O94804); conditions: kinase LOK (Entrez STK10)
# T17 construct: purchased Eurofin/DiscoverX
# Procedure, shortened: as §1
# [18] = target: T18, 384 kinases from the human genome (Homo sapiens, UniProt Q86Z02); conditions: kinase HIPK1 (Entrez HIPK1)
# T18 construct: purchased Eurofin/DiscoverX
# Procedure, shortened: as §1
# [19] = target: T19, 384 kinases from the human genome (Homo sapiens, UniProt P15056)
# T19 construct: purchased Eurofin/DiscoverX
# Procedure, shortened: as §1
# [20] = target: T20, 384 kinases from the human genome (Homo sapiens, UniProt Q13557); conditions: kinase CAMK2D (Entrez CAMK2D)
# T20 construct: purchased Eurofin/DiscoverX
# Procedure, shortened: as §1
# [21] = target: T21, 384 kinases from the human genome (Homo sapiens, UniProt P42338); conditions: kinase PIK3CB (Entrez PIK3CB)
# T21 construct: purchased Eurofin/DiscoverX
# Procedure, shortened: as §1
# [22] = target: T22, 384 kinases from the human genome (Homo sapiens, UniProt P29317); conditions: kinase EPHA2 (Entrez EPHA2)
# T22 construct: purchased Eurofin/DiscoverX
# Procedure, shortened: as §1
# [23] = target: T23, 384 kinases from the human genome (Homo sapiens, UniProt P49840); conditions: kinase GSK3A (Entrez GSK3A)
# T23 construct: purchased Eurofin/DiscoverX
# Procedure, shortened: as §1
# [24] = target: T24, 384 kinases from the human genome (Homo sapiens, UniProt Q9NQU5); conditions: kinase PAK6 (Entrez PAK6)
# T24 construct: purchased Eurofin/DiscoverX
# Procedure, shortened: as §1
# [25] = target: T25, 384 kinases from the human genome (Homo sapiens, UniProt Q9P286); conditions: kinase PAK7 (Entrez PAK7)
# T25 construct: purchased Eurofin/DiscoverX
# Procedure, shortened: as §1
# [26] = target: T26, 384 kinases from the human genome (Homo sapiens, UniProt Q6P2M8); conditions: kinase CAMK1B (Entrez PNCK)
# T26 construct: purchased Eurofin/DiscoverX
# Procedure, shortened: as §1
# T19 sequence (P15056 whole entry): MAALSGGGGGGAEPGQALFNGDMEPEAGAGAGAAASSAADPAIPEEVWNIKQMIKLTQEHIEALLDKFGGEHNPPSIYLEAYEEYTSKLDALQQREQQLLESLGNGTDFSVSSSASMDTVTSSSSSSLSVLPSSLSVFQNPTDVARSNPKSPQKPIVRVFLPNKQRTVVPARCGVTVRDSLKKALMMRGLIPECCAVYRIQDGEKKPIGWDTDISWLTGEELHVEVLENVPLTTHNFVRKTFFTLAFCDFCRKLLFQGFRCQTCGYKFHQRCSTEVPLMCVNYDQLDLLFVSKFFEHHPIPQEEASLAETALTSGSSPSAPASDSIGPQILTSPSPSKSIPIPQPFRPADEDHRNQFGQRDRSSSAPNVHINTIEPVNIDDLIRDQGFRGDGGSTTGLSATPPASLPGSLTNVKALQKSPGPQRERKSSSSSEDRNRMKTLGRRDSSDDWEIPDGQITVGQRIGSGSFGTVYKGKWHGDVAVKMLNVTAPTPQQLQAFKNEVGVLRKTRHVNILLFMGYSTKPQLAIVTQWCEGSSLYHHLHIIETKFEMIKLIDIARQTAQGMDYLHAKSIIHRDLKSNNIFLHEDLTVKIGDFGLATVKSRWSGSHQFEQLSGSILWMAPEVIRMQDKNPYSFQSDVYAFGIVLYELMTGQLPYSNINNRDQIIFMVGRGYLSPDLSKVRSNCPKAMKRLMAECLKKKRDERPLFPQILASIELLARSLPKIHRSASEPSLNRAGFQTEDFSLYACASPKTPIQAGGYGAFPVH
# T2 sequence (Q9C098 whole entry): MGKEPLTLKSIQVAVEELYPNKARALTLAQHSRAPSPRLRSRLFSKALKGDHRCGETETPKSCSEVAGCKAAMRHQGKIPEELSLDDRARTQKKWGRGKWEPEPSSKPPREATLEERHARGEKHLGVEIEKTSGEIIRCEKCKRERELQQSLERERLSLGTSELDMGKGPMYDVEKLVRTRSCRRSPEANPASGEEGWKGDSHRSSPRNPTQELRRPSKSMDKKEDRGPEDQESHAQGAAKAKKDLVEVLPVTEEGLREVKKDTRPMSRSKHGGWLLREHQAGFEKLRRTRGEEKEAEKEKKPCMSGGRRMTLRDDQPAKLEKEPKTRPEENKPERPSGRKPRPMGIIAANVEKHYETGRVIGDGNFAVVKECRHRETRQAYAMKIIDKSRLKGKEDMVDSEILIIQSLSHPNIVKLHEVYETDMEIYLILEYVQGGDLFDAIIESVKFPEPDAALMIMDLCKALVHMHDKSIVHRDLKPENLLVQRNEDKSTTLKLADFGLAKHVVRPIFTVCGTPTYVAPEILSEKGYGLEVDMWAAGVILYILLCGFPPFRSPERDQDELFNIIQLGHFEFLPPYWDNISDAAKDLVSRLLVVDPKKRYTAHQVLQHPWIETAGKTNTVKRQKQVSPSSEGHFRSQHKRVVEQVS
# T25 sequence (Q9P286 whole entry): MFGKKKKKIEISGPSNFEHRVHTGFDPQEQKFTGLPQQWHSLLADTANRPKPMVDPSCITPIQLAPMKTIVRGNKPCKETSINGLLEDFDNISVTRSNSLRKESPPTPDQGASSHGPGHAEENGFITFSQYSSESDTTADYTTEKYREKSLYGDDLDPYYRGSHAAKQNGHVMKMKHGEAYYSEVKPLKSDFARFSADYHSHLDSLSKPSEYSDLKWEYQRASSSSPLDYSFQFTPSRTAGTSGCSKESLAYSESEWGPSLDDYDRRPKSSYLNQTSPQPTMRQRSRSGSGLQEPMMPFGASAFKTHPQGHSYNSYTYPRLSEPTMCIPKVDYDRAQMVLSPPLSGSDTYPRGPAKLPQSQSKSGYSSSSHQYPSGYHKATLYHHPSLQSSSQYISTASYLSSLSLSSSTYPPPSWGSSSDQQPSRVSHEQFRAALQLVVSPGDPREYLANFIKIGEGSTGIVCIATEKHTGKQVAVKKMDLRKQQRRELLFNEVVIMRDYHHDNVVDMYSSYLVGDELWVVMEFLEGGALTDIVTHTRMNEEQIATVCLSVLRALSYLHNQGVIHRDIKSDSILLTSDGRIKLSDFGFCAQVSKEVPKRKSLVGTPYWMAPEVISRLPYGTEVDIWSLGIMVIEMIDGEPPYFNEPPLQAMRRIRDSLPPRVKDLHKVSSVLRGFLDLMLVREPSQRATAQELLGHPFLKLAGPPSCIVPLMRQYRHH
# T7 sequence (Q00537 whole entry): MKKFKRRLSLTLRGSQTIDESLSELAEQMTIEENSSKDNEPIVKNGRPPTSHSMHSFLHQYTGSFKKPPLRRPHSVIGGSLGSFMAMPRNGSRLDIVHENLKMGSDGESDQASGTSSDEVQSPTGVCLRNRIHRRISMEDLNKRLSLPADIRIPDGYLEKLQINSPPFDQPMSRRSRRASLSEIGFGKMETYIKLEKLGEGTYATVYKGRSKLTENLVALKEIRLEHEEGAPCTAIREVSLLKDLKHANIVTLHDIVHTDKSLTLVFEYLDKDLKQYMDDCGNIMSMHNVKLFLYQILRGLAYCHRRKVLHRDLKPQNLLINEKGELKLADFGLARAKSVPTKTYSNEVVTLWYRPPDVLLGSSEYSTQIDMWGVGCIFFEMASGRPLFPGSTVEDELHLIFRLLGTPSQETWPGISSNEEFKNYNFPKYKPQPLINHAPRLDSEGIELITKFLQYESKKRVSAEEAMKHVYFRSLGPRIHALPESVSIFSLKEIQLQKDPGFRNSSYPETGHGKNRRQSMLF
# T4 sequence (Q8N4C8 whole entry): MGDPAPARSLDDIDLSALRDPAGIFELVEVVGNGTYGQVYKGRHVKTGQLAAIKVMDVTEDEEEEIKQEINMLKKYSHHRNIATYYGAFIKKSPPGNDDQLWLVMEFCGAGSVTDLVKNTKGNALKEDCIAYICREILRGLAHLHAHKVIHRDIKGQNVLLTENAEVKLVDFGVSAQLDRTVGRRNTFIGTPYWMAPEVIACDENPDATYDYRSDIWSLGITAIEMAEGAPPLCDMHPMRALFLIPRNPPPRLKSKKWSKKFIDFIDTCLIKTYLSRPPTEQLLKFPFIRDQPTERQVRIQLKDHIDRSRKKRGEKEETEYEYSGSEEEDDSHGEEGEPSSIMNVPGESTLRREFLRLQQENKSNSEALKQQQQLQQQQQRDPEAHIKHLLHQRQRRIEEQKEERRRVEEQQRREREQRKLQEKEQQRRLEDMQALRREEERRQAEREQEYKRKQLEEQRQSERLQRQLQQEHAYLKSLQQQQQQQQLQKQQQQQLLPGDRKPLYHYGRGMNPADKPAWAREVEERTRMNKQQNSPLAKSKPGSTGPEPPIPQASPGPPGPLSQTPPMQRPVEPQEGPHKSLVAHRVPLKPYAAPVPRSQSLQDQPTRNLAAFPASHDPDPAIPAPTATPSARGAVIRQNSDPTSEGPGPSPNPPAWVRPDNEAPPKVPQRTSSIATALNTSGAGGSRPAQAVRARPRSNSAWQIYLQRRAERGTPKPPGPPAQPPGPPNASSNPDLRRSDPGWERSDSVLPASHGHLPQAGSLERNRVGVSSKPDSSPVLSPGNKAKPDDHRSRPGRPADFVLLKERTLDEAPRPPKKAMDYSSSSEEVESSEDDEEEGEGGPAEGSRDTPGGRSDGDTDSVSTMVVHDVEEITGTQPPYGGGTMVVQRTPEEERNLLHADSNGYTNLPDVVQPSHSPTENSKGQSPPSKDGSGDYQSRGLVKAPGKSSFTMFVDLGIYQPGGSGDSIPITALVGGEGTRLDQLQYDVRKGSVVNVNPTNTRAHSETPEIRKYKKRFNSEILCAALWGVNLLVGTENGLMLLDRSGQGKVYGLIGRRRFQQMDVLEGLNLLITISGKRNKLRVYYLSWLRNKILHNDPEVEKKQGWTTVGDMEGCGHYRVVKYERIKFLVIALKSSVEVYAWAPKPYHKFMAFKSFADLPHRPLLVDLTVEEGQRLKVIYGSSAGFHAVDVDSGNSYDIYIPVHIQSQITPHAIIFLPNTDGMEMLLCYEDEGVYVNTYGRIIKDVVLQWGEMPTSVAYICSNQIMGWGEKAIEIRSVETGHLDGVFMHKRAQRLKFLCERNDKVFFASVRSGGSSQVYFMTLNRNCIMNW
# T15 sequence (P48729 whole entry): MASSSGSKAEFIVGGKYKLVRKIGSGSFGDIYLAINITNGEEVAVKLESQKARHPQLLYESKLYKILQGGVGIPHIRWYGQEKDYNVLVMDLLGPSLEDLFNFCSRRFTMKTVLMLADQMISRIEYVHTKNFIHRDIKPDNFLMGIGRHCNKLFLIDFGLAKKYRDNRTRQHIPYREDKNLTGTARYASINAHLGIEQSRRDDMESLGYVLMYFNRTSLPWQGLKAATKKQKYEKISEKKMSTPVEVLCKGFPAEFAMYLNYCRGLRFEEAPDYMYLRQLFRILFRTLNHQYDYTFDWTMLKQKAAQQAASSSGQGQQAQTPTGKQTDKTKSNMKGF
# T23 sequence (P49840 whole entry): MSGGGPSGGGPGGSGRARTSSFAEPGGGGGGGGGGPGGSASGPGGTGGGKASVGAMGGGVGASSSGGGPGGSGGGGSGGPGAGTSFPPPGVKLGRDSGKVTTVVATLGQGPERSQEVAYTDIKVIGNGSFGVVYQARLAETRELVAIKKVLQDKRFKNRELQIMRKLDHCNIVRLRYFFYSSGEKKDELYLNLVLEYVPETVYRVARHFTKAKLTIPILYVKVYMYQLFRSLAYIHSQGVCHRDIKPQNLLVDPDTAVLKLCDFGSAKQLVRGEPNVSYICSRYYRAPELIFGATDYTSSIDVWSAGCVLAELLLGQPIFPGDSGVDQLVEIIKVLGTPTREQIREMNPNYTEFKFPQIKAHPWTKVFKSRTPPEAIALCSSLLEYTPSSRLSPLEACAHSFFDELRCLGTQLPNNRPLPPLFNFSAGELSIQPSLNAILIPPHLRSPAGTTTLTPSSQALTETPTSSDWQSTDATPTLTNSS
smiles,measurement,setting,value
CC(C)C(=O)N1CCN(c2ccc(NC(=O)c3cc4ccccc4o3)cc2Cl)CC1 [Compound 21],Percent Control,[1],100%
same,Percent Control,[2],97%
same,Percent Control,[3],77%
same,Percent Control,[4],63%
same,Percent Control,[5],99%
same,Percent Control,[6],93%
same,Percent Control,[7],99%
same,Percent Control,[8],24%
same,Percent Control,[9],98%
same,Percent Control,[10],97%
same,Percent Control,[11],99%
same,Percent Control,[12],89%
same,Percent Control,[13],76%
same,Percent Control,[14],89%
same,Percent Control,[15],88%
same,Percent Control,[16],100%
same,Percent Control,[17],100%
same,Percent Control,[18],87%
same,binding to BRAF,[19]; 10 µM of 21,failed to bind
same,Percent Control,[19]; kinase BRAF (Entrez BRAF),93%
same,Percent Control,[20],92%
same,Percent Control,[21],99%
same,Percent Control,[22],40%
same,Percent Control,[23],92%
same,Percent Control,[24],81%
same,Percent Control,[25],85%
same,Percent Control,[26],77%

# Reference: paper PMC8333425, “Discovery of a dual Ras and ARF6 inhibitor from a GPCR endocytosis screen” (Nature Communications, 2021)
